Experimental data taken from the CheMixHub ionic liquid set.
± gives the uncertainty stated by the source.

Assay: xn = mol fraction of the nth substance listed
Settings: 308.15 K, 101 kPa

SMILES: CCCCCCCCCCCCCCCC[n+]1ccccc1.[Cl-] + C[C@@H](O)[C@H](N)C(=O)O + O
- electrical conductivity (x2 = 0.0002, x1 = 5.4e-07): 0.000209 ± 2e-06 S/m
- electrical conductivity (x2 = 0.0002, x1 = 9e-07): 0.000279 ± 3e-06 S/m
- electrical conductivity (x2 = 0.0002, x1 = 1.62e-06): 0.000384 ± 4e-06 S/m
- electrical conductivity (x2 = 0.0002, x1 = 2.35e-06): 0.000481 ± 5e-06 S/m
- electrical conductivity (x2 = 0.0002, x1 = 2.89e-06): 0.000615 ± 6e-06 S/m
- electrical conductivity (x2 = 0.0002, x1 = 3.79e-06): 0.000744 ± 7e-06 S/m
- electrical conductivity (x2 = 0.0002, x1 = 4.51e-06): 0.000835 ± 8e-06 S/m
- electrical conductivity (x2 = 0.0002, x1 = 5.59e-06): 0.000986 ± 1e-05 S/m
- electrical conductivity (x2 = 0.0002, x1 = 6.67e-06): 0.001137 ± 1.1e-05 S/m
- electrical conductivity (x2 = 0.0002, x1 = 7.94e-06): 0.00127 ± 1.3e-05 S/m
- electrical conductivity (x2 = 0.0002, x1 = 9.02e-06): 0.001403 ± 1.4e-05 S/m
- electrical conductivity (x2 = 0.0002, x1 = 1.01e-05): 0.00155 ± 1.6e-05 S/m
- electrical conductivity (x2 = 0.0002, x1 = 1.118e-05): 0.00168 ± 1.7e-05 S/m
- electrical conductivity (x2 = 0.0002, x1 = 1.335e-05): 0.00196 ± 2e-05 S/m
- electrical conductivity (x2 = 0.0002, x1 = 1.551e-05): 0.00219 ± 2.2e-05 S/m
- electrical conductivity (x2 = 0.0002, x1 = 1.75e-05): 0.00237 ± 2.4e-05 S/m
- electrical conductivity (x2 = 0.0002, x1 = 1.966e-05): 0.00251 ± 2.5e-05 S/m
- electrical conductivity (x2 = 0.0002, x1 = 2.183e-05): 0.00264 ± 2.6e-05 S/m
- electrical conductivity (x2 = 0.0002, x1 = 2.381e-05): 0.00275 ± 2.8e-05 S/m
- electrical conductivity (x2 = 0.0002, x1 = 2.58e-05): 0.00286 ± 2.9e-05 S/m
- electrical conductivity (x2 = 0.0002, x1 = 2.995e-05): 0.00304 ± 3e-05 S/m
- electrical conductivity (x2 = 0.0002, x1 = 3.391e-05): 0.00321 ± 3.2e-05 S/m
- electrical conductivity (x2 = 0.0002, x1 = 3.77e-05): 0.00335 ± 3.4e-05 S/m
- electrical conductivity (x2 = 0.0002, x1 = 4.149e-05): 0.0035 ± 3.5e-05 S/m
- electrical conductivity (x2 = 0.0002, x1 = 4.528e-05): 0.00364 ± 3.6e-05 S/m
- electrical conductivity (x2 = 0.0002, x1 = 4.889e-05): 0.00376 ± 3.8e-05 S/m
- electrical conductivity (x2 = 0.0002, x1 = 5.069e-05): 0.00382 ± 3.8e-05 S/m
- electrical conductivity (x2 = 0.0002, x1 = 5.953e-05): 0.0041 ± 4.1e-05 S/m
- electrical conductivity (x2 = 0.0002, x1 = 6.801e-05): 0.00437 ± 4.4e-05 S/m
- electrical conductivity (x2 = 0.0002, x1 = 7.612e-05): 0.00458 ± 4.6e-05 S/m
- electrical conductivity (x2 = 0.0002, x1 = 8.388e-05): 0.00481 ± 4.8e-05 S/m
- electrical conductivity (x2 = 0.0002, x1 = 9.146e-05): 0.00499 ± 5e-05 S/m
- electrical conductivity (x2 = 0.0002, x1 = 9.849e-05): 0.00517 ± 5.2e-05 S/m
- electrical conductivity (x2 = 0.0002, x1 = 0.0001055): 0.00533 ± 5.3e-05 S/m
- electrical conductivity (x2 = 0.0002, x1 = 0.000112): 0.0055 ± 5.5e-05 S/m
- electrical conductivity (x2 = 0.0002, x1 = 0.0001185): 0.00565 ± 5.7e-05 S/m
- electrical conductivity (x2 = 0.0009181, x1 = 2.391e-05): 0.00276 ± 2.8e-05 S/m
- electrical conductivity (x2 = 0.0009181, x1 = 2.608e-05): 0.00285 ± 2.9e-05 S/m
- electrical conductivity (x2 = 0.0009181, x1 = 3.007e-05): 0.00304 ± 3e-05 S/m
- electrical conductivity (x2 = 0.0009181, x1 = 3.405e-05): 0.0032 ± 3.2e-05 S/m
- electrical conductivity (x2 = 0.0009181, x1 = 3.804e-05): 0.00337 ± 3.4e-05 S/m
- electrical conductivity (x2 = 0.0009181, x1 = 4.184e-05): 0.00351 ± 3.5e-05 S/m
- electrical conductivity (x2 = 0.0009181, x1 = 4.564e-05): 0.00365 ± 3.7e-05 S/m
- electrical conductivity (x2 = 0.0009181, x1 = 4.926e-05): 0.00379 ± 3.8e-05 S/m
- electrical conductivity (x2 = 0.0009181, x1 = 5.108e-05): 0.00385 ± 3.9e-05 S/m
- electrical conductivity (x2 = 0.0009181, x1 = 5.995e-05): 0.00413 ± 4.1e-05 S/m
- electrical conductivity (x2 = 0.0009181, x1 = 6.846e-05): 0.00439 ± 4.4e-05 S/m
- electrical conductivity (x2 = 0.0009181, x1 = 7.661e-05): 0.00463 ± 4.6e-05 S/m
- electrical conductivity (x2 = 0.0009181, x1 = 8.44e-05): 0.00485 ± 4.9e-05 S/m
- electrical conductivity (x2 = 0.0009181, x1 = 9.2e-05): 0.00505 ± 5.1e-05 S/m
- electrical conductivity (x2 = 0.0009181, x1 = 9.907e-05): 0.00523 ± 5.2e-05 S/m
- electrical conductivity (x2 = 0.0009181, x1 = 0.0001061): 0.0054 ± 5.4e-05 S/m
- electrical conductivity (x2 = 0.0009181, x1 = 0.0001128): 0.00556 ± 5.6e-05 S/m
- electrical conductivity (x2 = 0.0009181, x1 = 0.0001192): 0.00571 ± 5.7e-05 S/m
- electrical conductivity (x2 = 0.0009182, x1 = 5.4e-07): 0.000316 ± 3e-06 S/m
- electrical conductivity (x2 = 0.0009182, x1 = 9.1e-07): 0.000383 ± 4e-06 S/m
- electrical conductivity (x2 = 0.0009182, x1 = 1.63e-06): 0.00045 ± 5e-06 S/m
- electrical conductivity (x2 = 0.0009182, x1 = 2.35e-06): 0.000543 ± 5e-06 S/m
- electrical conductivity (x2 = 0.0009182, x1 = 2.9e-06): 0.000651 ± 7e-06 S/m
- electrical conductivity (x2 = 0.0009182, x1 = 3.8e-06): 0.000745 ± 7e-06 S/m
- electrical conductivity (x2 = 0.0009182, x1 = 4.53e-06): 0.000847 ± 8e-06 S/m
- electrical conductivity (x2 = 0.0009182, x1 = 5.61e-06): 0.00102 ± 1e-05 S/m
- electrical conductivity (x2 = 0.0009182, x1 = 6.88e-06): 0.001307 ± 1.3e-05 S/m
- electrical conductivity (x2 = 0.0009182, x1 = 7.97e-06): 0.001432 ± 1.4e-05 S/m
- electrical conductivity (x2 = 0.0009182, x1 = 9.06e-06): 0.00156 ± 1.6e-05 S/m
- electrical conductivity (x2 = 0.0009182, x1 = 1.014e-05): 0.00169 ± 1.7e-05 S/m
- electrical conductivity (x2 = 0.0009182, x1 = 1.123e-05): 0.001816 ± 1.8e-05 S/m
- electrical conductivity (x2 = 0.0009182, x1 = 1.34e-05): 0.00202 ± 2e-05 S/m
- electrical conductivity (x2 = 0.0009182, x1 = 1.558e-05): 0.00226 ± 2.3e-05 S/m
- electrical conductivity (x2 = 0.0009182, x1 = 1.775e-05): 0.0024 ± 2.4e-05 S/m
- electrical conductivity (x2 = 0.0009182, x1 = 1.974e-05): 0.00254 ± 2.5e-05 S/m
- electrical conductivity (x2 = 0.0009182, x1 = 2.192e-05): 0.00266 ± 2.7e-05 S/m
